PMC4016869, “In Search of the Active Metabolites of an Anticancer Piperazinedione, TW01003, in Rats” (BioMed Research International, 2014)
Where a name gives a salt, the structure may show the parent alone.

Experiments:
[1] = Pharmacokinetics of TW01003 and TW01003 sulfate after i.v. administration of TW01003 in Wistar rats; format: in vivo, rat; details: for Cmax / MRT inf / Vd / clearance / half-life: male, rat, iv; for Cmax / MRT inf / Vd / clearance / half-life / AUMCINF / AUCINF / AUCall: plasma, i.v. TW01003 2.0 mg/kg; for Cmax / MRT inf / Vd / clearance / half-life / AUMCINF: n = 6, mean ± SD; for AUCINF: n = 6, time 0 to infinite; for AUCINF / AUCall: mean ± SD; for AUCall: n = 6, time 0 to last sampling time
Description: Single-dose TW01003 in a solution (1 mL) containing a 9 : 1 (v/v) ratio of vehicle V : 10% Na2CO3(aq) was used for animal studies in pig or in male Wistar rats. For metabolic studies, the TW01003 test solution was administered intravenously (7 mg/kg, n = 1) to the tail vein or orally (36 mg/kg, n = 1) by a feeding tube. For pharmacokinetic studies, the test solution was administered intravenously to the tail vein of Wistar rats (2.0 mg/kg, 1 mL, n = 6). The rats were put under a heating lamp to maintain body temperatures at 37°C throughout the experiment. All procedures involving the use of animals were approved by the Institutional Animal Care and Use Committee of Taipei Medical University.
Blood samples (0.5 mL) were withdrawn from the carotid artery of rats at time intervals of 5, 15, 30, 45, 60, 90, 120, 180, and 240 min. Heparin sodium (25 IU/mL in 0.3 mL of saline) was added, and the blood samples were centrifuged (5,585 g) at 4°C for 8 min. The plasma was frozen immediately and kept at −78°C until analysis. The plasma sample (150 μL) was mixed with a sulfatase solution (200 IU/mL, 50 μL) at 37°C for 2 h. The plasma sample (150 μL) mixed with 50 μL of a buffer solution (pH 5.0) was used for the control group. The internal standard solution was then added, and the solution was centrifuged (5,585 g) for 10 min. The supernatant was concentrated to dryness with nitrogen gas. The D5W vehicle (200 μL) was then added to the residue, and the solution was subjected to HPLC analysis.
We established the plasma concentration-time profile. The area under the plasma concentration-time profile (AUC) and other pharmacokinetic parameters (peak concentration: C max; time to reach C max: T max; area under the moment curve: AUMC; volume of distribution: V D) were calculated using the log-linear trapezoidal rule. […] Terminal half-life (t 1/2) was compartment model-independently estimated. Data analysis was performed using Microsoft Excel, and data were represented as mean ± standard deviation (SD) for n experiments. Treatment differences were evaluated by the paired t-test.

[2] = Metabolic study of TW01003 in a rat after i.v. administration (plasma, enzymatic treatment, HPLC); format: in vivo
Description: Single-dose TW01003 in a solution (1 mL) containing a 9 : 1 (v/v) ratio of vehicle V : 10% Na2CO3(aq) was used for animal studies in pig or in male Wistar rats. For metabolic studies, the TW01003 test solution was administered intravenously (7 mg/kg, n = 1) to the tail vein or orally (36 mg/kg, n = 1) by a feeding tube. For pharmacokinetic studies, the test solution was administered intravenously to the tail vein of Wistar rats (2.0 mg/kg, 1 mL, n = 6). The rats were put under a heating lamp to maintain body temperatures at 37°C throughout the experiment. All procedures involving the use of animals were approved by the Institutional Animal Care and Use Committee of Taipei Medical University. Blood samples (0.5 mL) were withdrawn from the carotid artery of rats at time intervals of 5, 15, 30, 45, 60, 90, 120, 180, and 240 min. Heparin sodium (25 IU/mL in 0.3 mL of saline) was added, and the blood samples were centrifuged (5,585 g) at 4°C for 8 min. The plasma was frozen immediately and kept at −78°C until analysis. The plasma sample (150 μL) was mixed with a sulfatase solution (200 IU/mL, 50 μL) at 37°C for 2 h. The plasma sample (150 μL) mixed with 50 μL of a buffer solution (pH 5.0) was used for the control group. The internal standard solution was then added, and the solution was centrifuged (5,585 g) for 10 min. The supernatant was concentrated to dryness with nitrogen gas. […]

[3] = Identification of TW01003 metabolites in pig urine after i.v. administration (HPLC, sulfatase treatment); format: in vivo; details: i.v. TW01003 200 mg, urine 60 min after dosing
Excerpt: Crossbred 3-4-month-old pigs weighing 40–50 kg, obtained from the Animal Technology Institute, Taiwan (Miaoli, Taiwan), were used in a preliminary metabolic study for establishing the HPLC analytical method for the identification of TW01003 and its metabolites. The phase II conjugate TW01003 sulfate was first isolated from pig urine as an authentic sample for analysis. Male Wistar rats (200–250 g) for pharmacokinetic studies were purchased from the Laboratory Animal Center of National Taiwan University (Taipei, Taiwan). The animals were pathogen free and allowed to acclimate to the environmentally controlled quarters (24 ± 1°C and 12 : 12 h light-dark cycle) for at least 5 days before the experiments. Animal studies were conducted in accordance with the Guide for the Care and Use of Laboratory Animals.
In order to establish a feasible analytical method for the identification of TW01003 metabolites in a biological system, a test solution containing 200 mg of TW01003 was first injected into a 40–50 kg pig. Fresh urine (1 mL) was collected 60 min after dosing, filtered through a 0.22 μm Millipore filter, and subjected to HPLC analysis. Typical HPLC chromatograms of urine sample of untreated pig (Figure 2(a)), urine samples upon i.v. dosing of TW01003 (Figure 2(b)), and urine samples after sulfatase treatment (Figure 2(c)) are depicted.

[4] = Preliminary pharmacokinetic study, oral administration to rats; format: in vivo; details: unpublished data
[5] = system: vascular endothelial growth factor- (VEGF-) induced angiogenesis; assay: Matrigel with VEGF-induced angiogenesis after oral treatment in mice; format: in vivo; details: oral TW01003 3 mg/kg, unpublished data
[6] = system: 60 human disease-oriented cancer cell panel; parameters: method as in PMID 23567646; details: cited from earlier work

Structure (SMILES)	clearance rate relative to TW01003 ([1]; i.v. TW01003, n = 6) [times lower]	residence time (MRTINF) relative to TW01003 ([1]; i.v. TW01003, n = 6)	systemic exposure (AUCINF) relative to TW01003 ([1]; i.v. TW01003, n = 6) [times higher]	volume of distribution relative to TW01003 ([1]; i.v. TW01003, n = 6)	Cmax [1] [ng/mL]	MRT inf [1] [min]	Vd [1] [L/kg]	clearance [1] [mL/min/kg]	half-life [1] [min]	AUMCINF [1] [h∗h∗μg/mL]	AUCINF [1] [h∗μg/mL]	AUCall [1] [h∗μg/mL]	metabolite in rat plasma after i.v. administration ([2]; Wistar rat, i.v. TW01003 6.7 mg/kg, n = 1)	metabolite found in pig urine [3]	oral fraction absorbed [4] [%]	hemoglobin count of the matrigel reduced to [5] [%]	clearance in words ([2]; rat, i.v. 6.7 mg/kg or oral 36.0 mg/kg, regardless of administration method)	antitumor activity in words [6]
O=c1[nH]/c(=C\c2ccc(OS(=O)(=O)O)cn2)c(=O)[nH]/c1=C\c1ccccc1 [TW01003 sulfate]	2.3	seven times longer	2.5	three times higher	1310 ± 640	86.4 ± 19.8	4.43 ± 1.52	51.3	78.6 ± 13.2	1.01 ± 0.36	0.71 ± 0.25	0.52 ± 0.20	major metabolite	major metabolite	–	–	–	–
O=c1[nH]/c(=C/c2ccc(O)cn2)c(=O)[nH]/c1=C/c1ccccc1 [TW01003, (3E,6E)-3-Benzylidene-6-[(5-hydroxypyridin-2-yl)methylene]piperazine-2,5-dione]	–	–	–	–	2200 ± 250	12 ± 3.6	1.41 ± 0.41	118	45.6 ± 8.4	0.06 ± 0.02	0.29 ± 0.04	0.28 ± 0.04	–	–	1.72	< 1	cleared fairly rapidly	broad spectrum of antitumor activities
